{
  "source": "patent US20140242609A1",
  "about": "“Diagnosis and treatment of kidney stones, methods and compositions therefor” (Washington University, priority 2013, published 2014)",
  "key": {"[1]": {"tested_on": "CLDN14 mRNA", "experiment": "CLDN14 mRNA levels in primary cultures / freshly isolated mouse TALH cells (real-time PCR)", "type": "cell-based", "details": "versus vehicle", "protocol": "(§1) An immunomagnetic separation method was used to isolate the TAL cells from the mouse kidney (Hou et al., 2009). Antibodies against the TAL cell specific surface antigen, Tamm-Horsfall protein (THP), were coated onto the paramagnetic polystyrene beads (Dynabeads M-280; Dynal), allowing immunoprecipitation of the TAL cells from collagenase digested mouse kidneys. The isolated cells were plated in DMEM medium supplemented with 10% FBS, penicillin/streptomycin, and 1 mM sodium pyruvate for 16 hours, followed by immediate transfection with NFAT or antagomirs.\nTotal RNA including microRNA was extracted using Trizol (Invitrogen). Cellular mRNA was reverse transcribed using the Superscript-III kit (Invitrogen), followed by real-time PCR amplification using SYBR Green PCR Master Mix (Bio-Rad) and Eppendorf Realplex2S system. The design of claudin-14 primers was described above. The design of pri-miRNA primers was according to Ma et al., (2010). Results were expressed as 2^−ΔCt values with ΔCT=Ctgene−Ctβ-actin.\nas §1, with “TALH” for “TAL”, “kidney. (Gong Y,” for “kidney (Hou”, “al. 2012 and Gong Y, et al. 2013)” for “al., 2009).”, “protein,” for “protein (THP),”, “treatment.” for “transfection with NFAT or antagomirs.”\nTotal RNA including microRNA was extracted using Trizol (Invitrogen). Cellular mRNA was reverse transcribed using the Superscript-III kit (Invitrogen), followed by real-time PCR amplification using SYBR Green PCR Master Mix (Bio-Rad) and Eppendorf Realplex2S system. […] Results were expressed as 2^−ΔCt values with ΔCT=Ctgene−Ctβ-actin. […]\nTotal RNA including microRNA was extracted using Trizol (Invitrogen). […] Results were expressed as 2^−ΔCt values with ΔCT=Ctgene−Ctβ-actin. […]"}, "[2]": {"experiment": "24 hr urinalysis in metabolic cages, plasma and urine electrolytes", "type": "in vivo, mouse", "protocol": "Age (9-10 weeks old) and sex (male) matched wild-type and CLDN14 KO mice were housed individually in metabolic cages (Harvard Apparatus) with free access to water and food for 24 hr. Urine was collected under mineral oil. The plasma and urine Ca^++ and Mg^2+ levels were determined with atomic flame absorption spectrophotometer (PerkinElmer). The plasma (P) and urine (U) electrolyte levels were determined with the Roche Cobas clinical analyzer (Roche Diagnostics). […] The fractional excretion of electrolytes was calculated using the following equation: FEion=V×Uion/(GFR×Pion), where GFR was calculated according to the clearance rate of creatinine (GFR=V×Ucreatinine/Pcreatinine).\nMice were housed individually in metabolic cages (Harvard Apparatus) with free access to water and food for 24 hr. Urine was collected under mineral oil. The plasma and urine Ca^++ and Mg^++ levels were determined with atomic flame absorption spectrophotometer (PerkinElmer). The creatinine levels were measured with an enzymatic method that was independent of plasma chromogens."}, "[3]": {"experiment": "circulating hormonal levels in SAHA treated mice (ELISA)", "type": "in vivo, mouse", "details": "SAHA treatments versus vehicle", "protocol": "FIG. 24 illustrates circulating hormonal levels in SAHA versus vehicle treated mouse kidneys. Serum PTH (A), 1,25-(OH)2-vitD3 (B) and FGF23 (C) levels were measured with ELISA and shown as mean±SEM, n=5."}, "[4]": {"tested_on": "CLDN16, CLDN19, TRPV5, TRPM6, NKCC2, ROMK, TSC, Klotho and VDR", "experiment": "gene expression of renal ion transporters in SAHA treated mouse kidneys (real-time PCR)", "type": "in vivo", "details": "SAHA versus vehicle", "text": "FIG. 25 illustrates gene expression analyses of renal ion transporters in SAHA versus vehicle treated mouse kidneys by real-time PCR. Values are shown as fold ratios relative to the vehicle level (as mean±SEM; n=5).\nTotal RNA including microRNA was extracted using Trizol (Invitrogen). Cellular mRNA was reverse transcribed using the Superscript-III kit (Invitrogen), followed by real-time PCR amplification using SYBR Green PCR Master Mix (Bio-Rad) and Eppendorf Realplex2S system. The design of claudin-14 primers was described before by Gong et al., 2012. The design of pri-miRNA primers and ChIP primers was according to Gong et al., 2013. Results were expressed as 2^−ΔCt values with ΔCT=Ctgene−Ctβ-actin."}, "[5]": {"details": "WT pre-treated with furosemide 40 mg/kg BW−1 per day, Veh + Furo = furosemide alone"}},
  "data": [
    {"smiles": "O=C(CCCCCCC(=O)Nc1ccccc1)NO", "note": "[SAHA, Suberanilohydroxamic acid]", "values": [
      {"measurement": "CLDN14 mRNA levels, downregulation", "setting": "[1]; 0.1 μM", "value": 38, "unit": "%"},
      {"measurement": "CLDN14 mRNA levels, downregulation", "setting": "[1]; 0.33 μM", "value": 54, "unit": "%"},
      {"measurement": "ECa", "setting": "[2]; CLDN14 KO, same SAHA regimen", "value": "1.20 ± 0.24", "unit": "ug/24 hr · g"},
      {"measurement": "EMg", "setting": "[2]; CLDN14 KO, same SAHA regimen", "value": "6.50 ± 0.55", "unit": "ug/24 hr · g"},
      {"measurement": "FECa", "setting": "[2]; CLDN14 KO, same SAHA regimen", "value": "0.45 ± 0.07", "unit": "%"},
      {"measurement": "FEMg", "setting": "[2]; CLDN14 KO, same SAHA regimen", "value": "9.90 ± 0.83", "unit": "%"},
      {"measurement": "PCa", "setting": "[2]; CLDN14 KO, same SAHA regimen", "value": "11.13 ± 0.34", "unit": "mg/dL"},
      {"measurement": "PMg", "setting": "[2]; CLDN14 KO, same SAHA regimen", "value": "2.76 ± 0.05", "unit": "mg/dL"},
      {"measurement": "ECa", "setting": "[2]; [5]", "value": "3.37 ± 0.75", "unit": "ug/24 hr · g"},
      {"measurement": "EMg", "setting": "[2]; [5]", "value": "8.34 ± 2.15", "unit": "ug/24 hr · g"},
      {"measurement": "FECa", "setting": "[2]; [5]", "value": "1.97 ± 0.38", "unit": "%"},
      {"measurement": "FEMg", "setting": "[2]; [5]", "value": "22.50 ± 6.40", "unit": "%"},
      {"measurement": "PCa", "setting": "[2]; [5]", "value": "9.95 ± 0.41", "unit": "mg/dL"},
      {"measurement": "PMg", "setting": "[2]; [5]", "value": "2.20 ± 0.06", "unit": "mg/dL"},
      {"measurement": "ECa", "setting": "[2]; WT, SAHA 10 mg/kg BW−1 per day", "value": "0.72 ± 0.26^□ ug/24 hr · g"},
      {"measurement": "EMg", "setting": "[2]; WT, SAHA 10 mg/kg BW−1 per day", "value": "3.16 ± 0.80^□□ ug/24 hr · g"},
      {"measurement": "FECa", "setting": "[2]; WT, SAHA 10 mg/kg BW−1 per day", "value": "0.27 ± 0.08^□□ %"},
      {"measurement": "FEMg", "setting": "[2]; WT, SAHA 10 mg/kg BW−1 per day", "value": "6.06 ± 1.71^□□ %"},
      {"measurement": "PCa", "setting": "[2]; WT, SAHA 10 mg/kg BW−1 per day", "value": "11.38 ± 0.44^□ mg/dL"},
      {"measurement": "PMg", "setting": "[2]; WT, SAHA 10 mg/kg BW−1 per day", "value": "2.71 ± 0.12^□ mg/dL"},
      {"measurement": "effect of chronic treatment on calcemia", "setting": "[2]; chronic SAHA treatment", "value": "mild hypercalcemia"},
      {"measurement": "circulating 1,25-(OH)2-vitD3 levels", "setting": "[3]", "value": "None of these hormones changed"},
      {"measurement": "circulating FGF23 levels", "setting": "[3]", "value": "None of these hormones changed"},
      {"measurement": "circulating PTH levels", "setting": "[3]", "value": "None of these hormones changed"},
      {"measurement": "expression levels of other major Ca++/Mg++ transporters from the kidney", "setting": "[4]", "value": "nor did the inventors find any significant change"}
    ]}
  ]
}
